Test results from patent publication US20080255236A1, “Methods and Composition Comprising 2-[(3-Chlorophenyl)Amino] Phenylacetic Acid for Alzheimer's Disease” (Glycadia, Inc., priority 2007, published 2008).
Read-outs that look alike come from different tables or passages of the source.

Assays:
COX1 = COX1 (Homo sapiens, UniProt P23219); conditions: background statement, no test described; cited from earlier work
[1] = Plasma levels of 23CPPA following oral administration in rats; type: in vivo, rat; conditions: for AUC(0-t) / half-life: plasma, rat; for AUC(0-t) / Cmax / half-life: po; for AUC(0-t): read-out: AUC0-24; for Cmax: read-out: maximal concentration (Cmax)
Protocol: Concentrations of compound in rat plasma were measured at timed intervals after administration by gavage of 25 and 75 mg per kilogram of body weight of the sodium salt of 23CPPA. […] Plasma concentrations of the compound readily declined after reaching maximal concentration and the elimination half-life (T^1/2) was about 2 hours. The extent of systemic exposure of animals to 23CPPA, characterized by the area under the curve from 0 to 24 hours after administration (AUC0-24), increased with increasing dosage, was approximately dose proportional, and encompassed levels representing therapeutic ranges.

[2] = Plasma levels of 23CPPA after oral administration to humans; type: in vivo, human; conditions: for AUC(0-t): read-out: AUC0-24
Protocol: Plasma concentrations were measured at timed intervals after oral administration of a single dose of 50 to 1000 mg of the sodium salt of 23CPPA. […] The extent of systemic exposure of subjects to 23CPPA, characterized by the area under the curve from 0 to 24 hours after administration (AUC0-24), increased with increasing dosage from 50 to 1000 mg and was approximately dose proportional. The human pharmacokinetic findings closely resemble those in rats according to the human equivalent dose as shown in Example 2.

diabetic rodents = conditions: chronic administration, cited from earlier work
COX2 = target: T1, COX2 (Homo sapiens, UniProt P35354); conditions: background statement, no test described; cited from earlier work
T1 sequence (P35354 18-604): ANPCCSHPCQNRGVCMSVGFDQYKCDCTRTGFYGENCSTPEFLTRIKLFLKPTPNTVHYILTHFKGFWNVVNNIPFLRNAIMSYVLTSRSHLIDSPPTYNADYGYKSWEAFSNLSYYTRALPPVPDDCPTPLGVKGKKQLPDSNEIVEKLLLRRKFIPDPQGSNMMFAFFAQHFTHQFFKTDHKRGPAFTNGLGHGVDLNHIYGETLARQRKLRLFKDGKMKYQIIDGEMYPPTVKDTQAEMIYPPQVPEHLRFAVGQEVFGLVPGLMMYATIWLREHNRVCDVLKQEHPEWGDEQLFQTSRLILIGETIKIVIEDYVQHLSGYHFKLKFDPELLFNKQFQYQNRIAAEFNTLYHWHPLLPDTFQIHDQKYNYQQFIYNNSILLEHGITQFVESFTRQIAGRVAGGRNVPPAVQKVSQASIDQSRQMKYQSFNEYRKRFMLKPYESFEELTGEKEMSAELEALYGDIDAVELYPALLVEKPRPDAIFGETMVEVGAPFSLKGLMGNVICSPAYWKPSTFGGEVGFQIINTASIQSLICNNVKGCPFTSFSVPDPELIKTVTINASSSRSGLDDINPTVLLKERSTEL

human hepatocytes = test: Metabolic conversion after incubation with human hepatocytes (mass spectrometry); type: in vitro ADME
Protocol: After incubation of 23CPPA with human hepatocytes, samples were analyzed using mass spectrometry to establish metabolic conversion of the compound.

[3] = test system: Mammalian cell cultures expressing human Amyloid Protein Precursor (APP); test: Production of Aβ40 and Aβ42 peptides in culture supernatants, enzyme-linked immunoassay; type: cell-based; conditions: sodium salt at 10, 50 and 100 micromolar, vs DMSO control
Protocol: FIG. 1 is a chart diagram representing an exemplary embodiment of 23CPPA lowering production of amyloidogenic Aβ42 peptide. Mammalian cell cultures expressing human Amyloid Protein Precursor (APP) were treated with the sodium salt of 23CPPA at concentrations of 10, 50 and 100 micromolar. The culture supernatants were analyzed by enzyme-linked immunoassay for the Aβ40 and Aβ42 peptides. Results were compared to control values obtained from cells treated with DMSO. […] Mammalian cell cultures expressing human Amyloid Protein Precursor (APP) were treated with the sodium salt of 23CPPA at concentrations of 10, 50 and 100 micromolar. The culture supernatants were analyzed by enzyme-linked immunoassay for the Aβ40 and Aβ42 peptides. Results were compared to control values obtained from cells treated with DMSO.

[4] = Brain and plasma levels of 23CPPA following oral administration in rats (HPLC/MS/MS); type: in vivo; conditions: rat; for concentration at 1 h: 1 hour after dose; for concentration at 4 h: 4 hours after dose; for concentration at 6 h: 6 hours after dose
Protocol: Rat hemi brains were obtained 1, 4 and 6 hours after administration by gavage of the sodium salt of 23CPPA at doses of 15 and 60 mg/kg and were mixed with two equivalents of water and homogenized. The resulting homogenate was extracted into acetonitrile containing internal standard and concentrations of the compound were analyzed by high pressure liquid chromatography/two stage mass spectrometry (HPLC/MS/MS). Plasma samples also were collected from the same rats at these time points for measurement of plasma concentrations of the compound.

[5] = Bioavailability of 23CPPA in male rats (oral vs intravenous); type: in vivo; conditions: rat, single dose oral 30 mg/kg vs intravenous 3.0 mg/kg, plasma LC-MS-MS
Protocol: Male rats were given a single dose of 23CPPA by the oral route (30 mg/kg) or by the intravenous route (3.0 mg/kg). Timed samples of blood were collected before and after dosing, and plasma concentrations of the compound were determined with LC-MS-MS analysis.

[6] = cited from earlier work
[7] = blood, gavage 15 mg/kg sodium salt, read-out: Blood concentration
[8] = blood, gavage 60 mg/kg sodium salt, read-out: Blood concentration
[9] = brain, gavage 15 mg/kg sodium salt, read-out: Brain concentration
[10] = brain, gavage 60 mg/kg sodium salt, read-out: Brain concentration

Sequence of COX1 (P23219 24-599): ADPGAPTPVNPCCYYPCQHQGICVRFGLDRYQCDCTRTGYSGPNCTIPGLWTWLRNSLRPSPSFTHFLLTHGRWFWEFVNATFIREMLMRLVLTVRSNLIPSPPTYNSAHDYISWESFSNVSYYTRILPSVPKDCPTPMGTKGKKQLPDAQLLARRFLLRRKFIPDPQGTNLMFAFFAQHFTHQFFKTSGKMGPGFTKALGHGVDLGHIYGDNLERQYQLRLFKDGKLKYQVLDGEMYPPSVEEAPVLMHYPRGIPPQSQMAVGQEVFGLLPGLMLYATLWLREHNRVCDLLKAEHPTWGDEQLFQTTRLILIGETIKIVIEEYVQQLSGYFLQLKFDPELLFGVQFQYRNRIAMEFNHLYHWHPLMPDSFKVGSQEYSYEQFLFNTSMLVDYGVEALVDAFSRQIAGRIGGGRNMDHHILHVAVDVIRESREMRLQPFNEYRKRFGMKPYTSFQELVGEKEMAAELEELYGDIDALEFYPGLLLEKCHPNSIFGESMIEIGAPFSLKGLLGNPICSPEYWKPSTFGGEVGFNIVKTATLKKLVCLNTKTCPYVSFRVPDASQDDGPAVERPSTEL

## O=C(O)Cc1ccccc1Nc1cccc(Cl)c1 [23CPPA, 2-[(3-chlorophenyl)amino]phenylacetic acid]
COX1
  inhibition of cyclooxygenase enzyme COX1: is not a pharmacologic inhibitor
[1]; gavage 25 mg/kg body wt. sodium salt
  AUC(0-t): 26600 ng·h/mL
[1]; gavage 75 mg/kg body wt. sodium salt
  AUC(0-t): 94000 ng·h/mL
[1]; rat plasma, gavage 25 mg/kg sodium salt
  Cmax: 9500 ng/mL
[1]; rat plasma, gavage 75 mg/kg sodium salt
  Cmax: 25000 ng/mL
[1]; rat plasma, gavage 25 and 75 mg/kg sodium salt
  Time of maximal concentration (Tmax): within one hour
[1]; 25 mg/kg, gavage 25 mg/kg body wt. sodium salt, read-out: T1/2 (converted)
  half-life: 2.45 h
[1]; 75 mg/kg, rat plasma, gavage 25 and 75 mg/kg sodium salt, read-out: elimination half-life (T1/2) (converted)
  half-life: ~2 h
[1]; 75 mg/kg, gavage 75 mg/kg body wt. sodium salt, read-out: T1/2 (converted)
  half-life: 1.95 h
[2]; human plasma, single oral dose of 50 to 1000 mg sodium salt, read-out: maximal concentrations (Cmax)
  Cmax: 200 to 15600 ng/mL
[2]; plasma, human, all dosage groups, single oral dose 50 to 1000 mg sodium salt, read-out: mean time of maximal concentration (Tmax)
  Tmax: 1.74 h
[2]; plasma, human, single oral dose 50 mg (0.7 mg/kg body wt)
  AUC(0-t): 4480 ng·h/mL
[2]; plasma, human, single oral dose 50 mg (0.7 mg/kg body wt), read-out: T1/2 (converted)
  half-life: 1.55 h
[2]; plasma, human, single oral dose 100 mg (1.3 mg/kg body wt)
  AUC(0-t): 11000 ng·h/mL
[2]; plasma, human, single oral dose 100 mg (1.3 mg/kg body wt), read-out: T1/2 (converted)
  half-life: 1.5 h
[2]; plasma, human, single oral dose 250 mg (3.0 mg/kg body wt)
  AUC(0-t): 27300 ng·h/mL
[2]; plasma, human, single oral dose 250 mg (3.0 mg/kg body wt), read-out: T1/2 (converted)
  half-life: 1.35 h
[2]; plasma, human, single oral dose 500 mg (6.0 mg/kg body wt)
  AUC(0-t): 54000 ng·h/mL
[2]; plasma, human, single oral dose 500 mg (6.0 mg/kg body wt), read-out: T1/2 (converted)
  half-life: 1.5 h
[2]; plasma, human, single oral dose 750 mg (9.0 mg/kg body wt)
  AUC(0-t): 66600 ng·h/mL
[2]; plasma, human, single oral dose 750 mg (9.0 mg/kg body wt), read-out: T1/2 (converted)
  half-life: 2.33 h
[2]; plasma, human, single oral dose 1000 mg (12.3 mg/kg body wt)
  AUC(0-t): 100000 ng·h/mL
[2]; plasma, human, single oral dose 1000 mg (12.3 mg/kg body wt), read-out: T1/2 (converted)
  half-life: 2.38 h
[2]; plasma, human, single oral dose 50 to 1000 mg sodium salt, read-out: mean elimination half-life (T1/2) (converted)
  half-life: 1.77 h
Diabetic rodents; persistent hyperglycemia
  concentration of glycated albumin: lowers the concentration of glycated albumin
Diabetic rodents
  structural and functional abnormalities characteristic of diabetic kidney disease: ameliorates the structural and functional abnormalities
COX2
  inhibition of cyclooxygenase enzyme COX2: is not a pharmacologic inhibitor
Human hepatocytes; incubation with human hepatocytes, mass spectrometry
  conversion products identified: hydroxylation and loss of water products and glucuronide conjugates
Human hepatocytes; structures of conversion products from human hepatocytes
  conversion to COX-inhibitory compound: none of which had structures compatible with COX-inhibitory activity
[3]
  amount of Aβ40: without proportionate change
  amount of Aβ42: dose-dependent reduction
  total Aβ values: without proportionate change
[4]; [7]
  concentration at 1 h: 27 µM
  concentration at 4 h: 4 µM
  concentration at 6 h: 3 µM
[4]; [8]
  concentration at 1 h: 57 µM
  concentration at 4 h: 28 µM
  concentration at 6 h: 22 µM
[4]; [9]
  concentration at 1 h: 76 µM
  concentration at 4 h: 12.4 µM
  concentration at 6 h: 11.9 µM
[4]; [10]
  concentration at 1 h: 148 µM
  concentration at 4 h: 61 µM
  concentration at 6 h: 45 µM
[5]
  bioavailability: 85%

## C[C@@H](C(=O)O)c1ccc(-c2ccccc2)c(F)c1 [R-flurbiprofen]
[6]
  fraction converted in vivo to S-flurbiprofen: 22-30%
